Consider 9 molecules from PMC9505670, “The Effect of Short-Chain Fatty Acids on Growth of Cryptosporidium parvum In Vitro” (Microorganisms, 2022).

In general, EC50 refers to the concentration giving half of the maximal effect. Broadly, the IC50 is the concentration needed to halve the response being measured.

Where “and” joins values, the source holds several entries; their conditions need not be identical. Equal values may be shown once. Read-outs that look alike come from different tables or passages of the source.

Series [1] relates to C. parvum sporozoites. The series is described as follows: SCFA treatment of live sporozoites before inoculation onto HCT-8 cells. It counts as cell-based, Cryptosporidium parvum. To be noted: for inhibition of sporozoites: 45 min incubation with sporozoites prior to infection of host cell monolayers; for EC50: sporozoites incubated 45 min with SCFA, washed, then 48 h development on HCT-8 cells, read-out: EC50 for Sporozoite Stages. On the procedure:
Sporozoites were prepared according to You et al., 1998 [15]. Briefly, after excystation, the C. parvum oocysts and sporozoite mixture was filtered through a […] filter using a syringe and centrifuged, washed and counted. Isolated sporozoites were incubated with different SCFAs for 45 min, then washed several times to remove SCFAs before plating on cell monolayers. Sporozoites were then inoculated onto HCT-8 cells and incubated for 3 h. Monolayers were then washed, media was replaced and parasites were allowed to develop for 48 h, as described in the culture assay above. Cells were fixed and labeled and parasitic stages were quantitated as described above.

Series [2] has as its system E. invadens. The arrangement: method as in PMID 15659070. To be noted: incubated individually; cited from earlier work.
Series [3] relates to C. parvum. The series is described as follows: C. parvum in vitro culture assay, intracellular stages in infected HCT-8 cells. It counts as cell-based, Cryptosporidium parvum IOWA isolate. As for the experimental part:
Growth of C. parvum in cell culture was performed as described previously. Briefly, purified C. parvum IOWA isolate oocysts were washed with phosphate-buffered saline (PBS, pH 7.4) to remove the storage buffer (2.5% w/v aqueous potassium dichromate) and resuspended in RPMI 1640 media supplemented with 0.75% sodium taurocholate and incubated for 30 min at 37 °C. The excystation mixture containing oocysts, oocyst shells and free sporozoites was diluted with RPMI 1640 with 10% fetal bovine serum (FBS). Approximately 1 × 10^5 oocysts and sporozoites were dispensed per well in 24-well plates containing confluent HCT-8 cells. Host cells inoculated with the parasite mixture were incubated for 3 h and subsequently washed with PBS to remove free parasites (those that had not invaded host cells). PBS was replaced with fresh RPMI 1640 with 10% FBS with or without test compounds and the cultures were incubated for 48 h. In addition, RPMI 1640 with 10% FBS supplemented with DMSO (same concentration used with test compounds) was evaluated to determine the effect of inhibition or toxicity on cultures. Culture wells were washed with PBS, and then PBS was replaced by Bouin’s solution. After fixation of cultures, the Bouin solution was removed and decolorized with 70% ethanol, followed by 5 washes with PBS. Culture wells were labeled with an anti-C. parvum fluorescein-labeled monoclonal antibody (C3C3-FITC) and parasites were enumerated via quantitative fluorescent microscopy at 400× magnification using an Olympus IX73 microscope (Waltham, MA, USA). Twenty-four sequential, non-overlapping fields per well were captured as digital images, constituting a representative subsample of the entire well. The parasites were quantified using OpenCFU (https://sourceforge.net/projects/opencfu/, accessed on 4 October 2014) software based on the size of the fluorescing parasites and the parasite-specific fluorescent signal. Data were obtained from four well replicates, and each experiment was repeated at least twice. Dose–effect curves and the median effective concentration (EC50) of each compound alone or in combination was determined using CompuSyn (ComboSyn, Inc., Paramus, NJ, USA, ver. 2.1 for Microsoft Windows) computer software. The EC50 was defined as the concentration required for reducing the number of parasites by 50% compared with the untreated control. […]

Series [4] has as its system HCT-8 cells. The series is described as follows: Compound toxicity for host cell cultures (CellTiter 96 tetrazolium assay). Format: cell-based, human. As for the experimental part: (§1) Test compound toxicity for HCT-8 cell cultures was assessed using the CellTiter 96 Non-Radioactive Cell Proliferation/Cytotoxicity assay as recommended by the manufacturer (Promega Corporation, Madison, WI, USA).

In series [5] the test system is cytokine production in HCT-8 cells. The series is described as follows: Cytokine production, Luminex 48-plex, HCT-8 supernatants. To be noted: for majority of cytokines in the 48-plex assay (including IL-6 and TNF-α): 48 h treatment, alone or in combination with C. parvum infection. It counts as cell-based, human. As for the experimental part: For the cytokine assay, the in vitro infection assay was performed as described above. Supernatants from 24-well plates were collected and stored at –80 °C. Luminex multiplex assays were completed by Eve Technologies using the Human Cytokine discovery Array 48-plex Panel (Calgary, AB, Canada).

Series [6] deals with T. gondii. The arrangement: method as in PMID 17626366. To be noted: cited from earlier work; for IC50: cell monolayers infected and then treated.
For series [7], the system named is apoptosis in HCT-8 cells. The series is described as follows: Apoptosis assay (Caspase-Glo 3/7). It counts as cell-based, human. To be noted: 24 h. As for the experimental part:
In vitro assays were performed as described above. Briefly, HCT-8 cells were infected with C. parvum and/or treated with 1 mM butyrate for 24 h, after which the cells were analyzed for percent apoptosis. Control wells (uninfected, untreated) were compared with treated wells and infected wells. Apoptosis in HCT-8 cell cultures was measured using a commercially available assay (Promega Corporation, Madison, WI, USA). Caspase-Glo3/7 reagent was added directly to the assay wells.

Series [8] relates to CpHDAC3. To be noted: recombinant protein; cited from earlier work.
Series [9] concerns autophagy in HCT-8 cells. As to the kind of experiment: Autophagy assay (autophagosome detection reagent). It counts as cell-based, human. To be noted: 24 h. As for the experimental part: In vitro assays were performed as described above. Briefly, HCT-8 cells were infected with C. parvum and/or treated with 1 mM butyrate for 24 h, after which the cells were analyzed for […]. Control wells (uninfected, untreated) were compared with treated wells and infected wells. An autophagy assay was used following the recommendation of the manufacturer (Sigma-Aldrich, St. Louis, MO, USA). The medium was removed from the wells and 100 µL of the proprietary autophagosome detection reagent was added directly to each well. The plate was then incubated for 45 min at 37 °C and 5% CO2. The detection reagent was then removed, and each well was washed 3 times with the provided wash buffer before measuring fluorescence (λex = 360/λem = 520 nm) with a microplate reader. The intensity of the fluorescence correlates directly with the amount of autophagy observed.

The test system of series [10] is T. gondii. Set-up: method as in PMID 34339265. To be noted: treatment of mice; cited from earlier work.
The subject of series [11] is C. parvum. Set-up: method as in PMID 24273180. To be noted: cited from earlier work.
For series [12], the system named is C. parvum. The arrangement: method as in PMID 24273180. To be noted: cited from earlier work. This is another data set of the same source.
Series [13] can be described thus: Compound toxicity for host cell cultures (CellTiter 96 tetrazolium assay). Format: cell-based, human. To be noted: human; HDAC inhibitors; 48 h; read-out: Cytotoxicity Concentration (CC50) for HCT-8 Host Cells. On the procedure: as §1
In series [14] the test system is Cryptosporidium. The arrangement: method as in PMID 8917558. To be noted: previously reported; cited from earlier work.
The mark [15] stands for this setting: HCT-8 cells infected with C. parvum, 48 h treatment, read-out: EC50 for Intracellular Stages.
The mark [16] stands for this setting: HDAC inhibitors, infected HCT-8 cells, 48 h, read-out: EC50 of Intracellular Stages.
The mark [17] stands for this setting: C. parvum infected then 1 mM butyrate, 48 h, compared with butyrate alone or infection alone.
The mark [18] stands for this setting: Cryptosporidium parvum, HCT-8, 48 h, HCT-8 cells infected with C. parvum, 48 h treatment, read-out: EC50 for Intracellular Stages.

Consider `CCC(=O)O` [Propionate], for which, in series [1], the inhibition of sporozoites result is recorded as “no inhibition” and the EC50 is above 100 mM. The “concentration range inhibiting encystment” value in [2] was 6 to 22 mM. In addition, the EC50 in series [3] (setting [15]) lay in the range of 3 to 4 mM.
As to `COc1ccc(Cn2ccc3ccc(C(=O)NO)cc32)cc1` [PCI 34051], the toxicity entry in series [4] (below 200 nM) is recorded as “no toxicity”. The entries for the “majority of cytokines in the 48-plex assay (including IL-6 and TNF-α)” value in series [5] and in [5] (listed as PCI 34,051) were “did not increase cytokine expression” and “not significantly altered”, respectively. The EC50 in series [3] (setting [16]) was 1e-06 mM and 1e-06 to 7e-06 mM.
With `O=C(O)CCCc1ccccc1` [4-phenylbuyrate], the “inhibition of T. gondii in vitro” value in series [6] is reported as “inhibit”.
In the case of `CCCC(=O)O` [Butyrate], the apoptosis entry was “significantly higher percentage of apoptosis” in series [7] (1.0 mM alone, compared to control, p < 0.05) and “additional increase in apoptosis” in series [7] (C. parvum infection plus treatment 3 h after infection, 1 mM). The inhibition of sporozoites entry in series [1] is “inhibited growth”. In addition, the EC50 is 2 mM in series [1] (Cryptosporidium parvum), 4 to 10 mM in series [3] (setting [18]) and 3 to 8 mM in series [3] (setting [15]). In addition, the half-inhibitory concentration (IC50) in series [6] is 1 to 5 mM. Also, the “inhibition of T. gondii in vitro” value in series [6] is given as “inhibit”. The “majority of cytokines in the 48-plex assay (including IL-6 and TNF-α)” value in series [5] is listed as “not significantly altered”. Moreover, the IL-1α entry in series [5] (setting [17]) is reported as “significant increase”. The IL-8 entry in [5] (setting [17]) is “significant increase”. The “inhibition of CpHDAC3” value in series [8] was “did not inhibit”. Moreover, the “concentration range inhibiting encystment” value in series [2] is 6 to 22 mM. Besides, the autophagy entry is on record as “no difference” in series [9] (1 mM alone, uninfected cells); “significant decrease in autophagy” in [9] (cells infected with C. parvum and treated, 1 mM).
Regarding `CC(=O)O` [Acetate], in [1], the inhibition of sporozoites result was “no inhibition” and the EC50 is above 100 mM. Further, the CC50 in [4] is above 200 mM. For the same molecule, in series [2], the “concentration range inhibiting encystment” value was 6 to 22 mM. In addition, the EC50 in series [3] (setting [15]) was determined as 4 mM.
For the molecule `CCCC(CCC)C(=O)O` [Valproate, reference compound], in series [1], the inhibition of sporozoites entry is given as “no inhibition”. In addition, the concentration for a half-maximal effect (EC50) in series [1] (Cryptosporidium parvum) is above 100 mM. Also, in [6], the IC50 was 1 to 5 mM and the “inhibition of T. gondii in vitro” value is listed as “inhibit”. Further, the “number of T. gondii cysts in the brains of mice” value in series [10] is given as “reduce the number of T. gondii cysts”. The EC50 in series [3] (setting [18]) was 10 mM.
As to `O=C(CCCCCCC(=O)Nc1ccccc1)NO` [vorinostat], the “efficacy in a mouse model” value in series [11] is recorded as “efficacy”. The in vitro activity result in [12] was “in vitro activity”.
Take `CCC(=O)CCCCC[C@@H]1NC(=O)[C@H]2CCCCN2C(=O)[C@H]([C@@H](C)CC)NC(=O)[C@H](Cc2cn(OC)c3ccccc23)NC1=O` [Apicidin]: in series [13], the CC50 at 48 h was found to be 0.15 mM. In addition, the “anti-cryptosporidial activity at concentration” value in series [14] is recorded as 30 ng/mL. The EC50 amounted to 2e-05 mM in series [3] (Cryptosporidium parvum, HCT-8, 48 h, read-out: EC50 of Intracellular Stages, HDAC inhibitors, infected HCT-8 cells, 48 h) and 4e-05 mM in series [3] (read-out: EC50 of Intracellular Stages, HDAC inhibitors, infected HCT-8 cells, 48 h).
With `CC(/C=C/C(=O)NO)=C\[C@@H](C)C(=O)c1ccc(N(C)C)cc1` [Trichostatin A], in series [4] (HDAC inhibitors, 48 h, read-out: Cytotoxicity Concentration (CC50) for HCT-8 Host Cells), the CC50 was above 0.2 mM. In addition, the “anti-cryptosporidial activity at concentration” value in [14] is 30 ng/mL. For the same molecule, the EC50 in [3] (setting [16]) is 2e-05 mM.
